Converted amounts (≈) assume the structure as drawn. “And” between values parts separate entries of the source, which are not always exact repeats. Equal entries are not always repeated. Where two headings read alike, the source gives them in different places.
Tests used:
S. pneumoniae IU1945 = assay: Antimicrobial susceptibility assay; type: cell-based; details: Streptococcus pneumoniae
PBP1a = PBP1a (Streptococcus pneumoniae, UniProt Q8DR59); assay: cell-based; type: binding; details: IC50 PBPla
PBP1b = PBP1b (Streptococcus pneumoniae, UniProt Q7CRA4); type: binding; details: read-out: IC50 PBP1b
PBP2x = PBP2x (Streptococcus pneumoniae, UniProt P59676); assay: cell-based; type: binding
PBP2b = PBP2b (Streptococcus pneumoniae, UniProt P0A3M6); assay: cell-based; type: binding
PBP3 = target: T1, PBP3 (Streptococcus pneumoniae, UniProt Q8DQ99); details: read-out: IC50 PBP3
T1 sequence (Q8DQ99 23-413): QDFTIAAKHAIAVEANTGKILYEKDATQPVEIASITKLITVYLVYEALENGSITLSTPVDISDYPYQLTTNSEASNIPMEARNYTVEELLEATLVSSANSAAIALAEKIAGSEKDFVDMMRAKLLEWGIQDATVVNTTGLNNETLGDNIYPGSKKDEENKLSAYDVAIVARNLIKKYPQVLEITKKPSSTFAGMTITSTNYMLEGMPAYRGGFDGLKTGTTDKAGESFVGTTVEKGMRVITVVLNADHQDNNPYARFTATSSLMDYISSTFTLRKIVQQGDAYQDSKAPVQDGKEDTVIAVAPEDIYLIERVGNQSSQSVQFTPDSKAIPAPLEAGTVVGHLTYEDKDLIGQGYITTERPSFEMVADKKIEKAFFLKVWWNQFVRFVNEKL

PBP2a = PBP2a (Streptococcus pneumoniae, UniProt Q8DNB6); assay: cell-based; type: binding
[1] = test system: penicillin-binding proteins (PBPs); details: line of the Δpbp1b mutant strain; 4-fold rule
[2] = test system: penicillin-binding proteins (PBPs); details: S. pneumoniae, previous assessment; ref Kocaoglu et al. 2015; cited from earlier work
[3] = strain IU1945, average ± SEM of two experiments
[4] = Δpbp1b mutant strain, average ± SEM
[5] = Δpbp1a mutant strain, average ± SEM

PBP2b, sequence (P0A3M6 whole entry): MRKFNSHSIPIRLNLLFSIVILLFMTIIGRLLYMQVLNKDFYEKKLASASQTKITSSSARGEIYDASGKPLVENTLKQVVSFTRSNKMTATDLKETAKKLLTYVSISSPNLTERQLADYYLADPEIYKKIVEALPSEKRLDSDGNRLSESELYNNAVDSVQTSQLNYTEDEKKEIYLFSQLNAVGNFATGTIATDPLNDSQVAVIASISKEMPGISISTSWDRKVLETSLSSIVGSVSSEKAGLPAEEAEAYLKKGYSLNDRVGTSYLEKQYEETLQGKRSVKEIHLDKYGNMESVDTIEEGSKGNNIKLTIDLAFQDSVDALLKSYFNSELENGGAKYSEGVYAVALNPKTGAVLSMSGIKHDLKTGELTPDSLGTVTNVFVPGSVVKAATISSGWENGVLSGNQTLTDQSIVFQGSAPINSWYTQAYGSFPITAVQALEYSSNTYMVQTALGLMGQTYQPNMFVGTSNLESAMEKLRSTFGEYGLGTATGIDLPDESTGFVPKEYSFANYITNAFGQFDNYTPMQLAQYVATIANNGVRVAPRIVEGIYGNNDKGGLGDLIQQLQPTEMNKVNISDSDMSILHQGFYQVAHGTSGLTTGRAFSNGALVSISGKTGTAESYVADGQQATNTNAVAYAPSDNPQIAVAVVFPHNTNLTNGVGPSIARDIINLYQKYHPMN
PBP2x, sequence (P59676 whole entry): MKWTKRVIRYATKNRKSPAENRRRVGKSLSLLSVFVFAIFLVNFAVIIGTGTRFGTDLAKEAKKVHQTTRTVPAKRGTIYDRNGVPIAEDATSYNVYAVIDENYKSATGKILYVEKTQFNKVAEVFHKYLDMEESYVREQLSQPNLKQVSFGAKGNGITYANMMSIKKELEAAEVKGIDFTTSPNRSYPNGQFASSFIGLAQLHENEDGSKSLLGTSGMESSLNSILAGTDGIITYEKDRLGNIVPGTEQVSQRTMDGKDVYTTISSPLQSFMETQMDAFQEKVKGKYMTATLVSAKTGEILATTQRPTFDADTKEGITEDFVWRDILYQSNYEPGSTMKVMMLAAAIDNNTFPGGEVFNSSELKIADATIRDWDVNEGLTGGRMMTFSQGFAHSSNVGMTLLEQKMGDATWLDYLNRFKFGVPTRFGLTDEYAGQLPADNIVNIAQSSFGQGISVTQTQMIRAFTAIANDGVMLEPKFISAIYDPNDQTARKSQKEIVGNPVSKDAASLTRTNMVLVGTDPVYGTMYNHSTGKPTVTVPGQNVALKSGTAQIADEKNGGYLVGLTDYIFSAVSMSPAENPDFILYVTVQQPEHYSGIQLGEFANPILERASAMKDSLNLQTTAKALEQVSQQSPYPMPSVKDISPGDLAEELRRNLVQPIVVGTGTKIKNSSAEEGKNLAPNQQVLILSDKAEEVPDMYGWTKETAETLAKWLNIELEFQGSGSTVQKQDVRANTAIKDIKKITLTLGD
PBP2a, sequence (Q8DNB6 whole entry): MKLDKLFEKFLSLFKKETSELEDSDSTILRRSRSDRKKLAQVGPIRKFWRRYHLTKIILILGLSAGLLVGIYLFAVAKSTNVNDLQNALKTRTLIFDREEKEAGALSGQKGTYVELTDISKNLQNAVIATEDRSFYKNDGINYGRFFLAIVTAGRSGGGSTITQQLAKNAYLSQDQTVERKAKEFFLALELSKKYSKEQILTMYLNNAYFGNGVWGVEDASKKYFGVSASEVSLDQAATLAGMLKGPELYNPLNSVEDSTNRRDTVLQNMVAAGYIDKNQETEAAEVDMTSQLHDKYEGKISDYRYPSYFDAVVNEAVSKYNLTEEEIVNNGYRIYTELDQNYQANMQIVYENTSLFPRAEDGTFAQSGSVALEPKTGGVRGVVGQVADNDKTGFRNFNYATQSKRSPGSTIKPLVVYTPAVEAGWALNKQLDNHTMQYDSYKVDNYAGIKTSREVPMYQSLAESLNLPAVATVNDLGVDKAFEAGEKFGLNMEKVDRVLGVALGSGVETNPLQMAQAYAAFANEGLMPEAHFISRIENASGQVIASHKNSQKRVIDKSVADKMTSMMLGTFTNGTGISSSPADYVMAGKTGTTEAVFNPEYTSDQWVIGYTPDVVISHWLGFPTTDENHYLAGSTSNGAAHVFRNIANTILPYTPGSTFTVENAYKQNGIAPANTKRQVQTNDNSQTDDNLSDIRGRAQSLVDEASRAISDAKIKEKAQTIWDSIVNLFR
PBP1a, sequence (Q8DR59 whole entry): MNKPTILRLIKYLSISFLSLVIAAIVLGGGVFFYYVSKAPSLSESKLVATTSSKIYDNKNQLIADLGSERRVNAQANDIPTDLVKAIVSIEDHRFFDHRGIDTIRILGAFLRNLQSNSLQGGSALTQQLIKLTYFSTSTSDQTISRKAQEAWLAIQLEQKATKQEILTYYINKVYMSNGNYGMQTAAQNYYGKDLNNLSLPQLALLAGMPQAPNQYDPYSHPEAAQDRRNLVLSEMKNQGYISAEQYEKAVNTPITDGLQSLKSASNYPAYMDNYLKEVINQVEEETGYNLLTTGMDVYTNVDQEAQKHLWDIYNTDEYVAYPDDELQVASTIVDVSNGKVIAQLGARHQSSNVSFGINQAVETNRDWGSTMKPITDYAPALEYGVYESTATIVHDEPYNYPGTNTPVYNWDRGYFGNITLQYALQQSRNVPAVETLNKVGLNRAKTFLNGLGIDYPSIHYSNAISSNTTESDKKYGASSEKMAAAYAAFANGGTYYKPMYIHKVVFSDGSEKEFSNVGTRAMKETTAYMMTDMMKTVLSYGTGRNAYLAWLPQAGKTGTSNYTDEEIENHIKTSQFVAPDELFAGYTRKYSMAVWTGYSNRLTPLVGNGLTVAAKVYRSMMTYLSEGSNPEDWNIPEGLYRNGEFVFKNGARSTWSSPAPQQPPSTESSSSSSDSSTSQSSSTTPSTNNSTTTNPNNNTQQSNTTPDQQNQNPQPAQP

SMILES	MIC (S. pneumoniae IU1945) [µM]	IC50 (PBP1a; [3]) [µM]	IC50 (PBP1b; [3]) [µM]	IC50 (PBP2x; [3])	IC50 (PBP2b; [3]) [µM]	IC50 (PBP3; [3])	IC50 (PBP2a; [3]) [µM]	IC50 (PBP1a; [4]) [µM]	IC50 (PBP1b; [5]) [µM]	IC50 (PBP2x; [5]) [µM]	IC50 (PBP2x; [4]) [µM]	IC50 (PBP2a; [5]) [µM]	IC50 (PBP2a; [4]) [µM]	IC50 (PBP2b; [5]) [µM]	IC50 (PBP2b; [4]) [µM]	IC50 (PBP3; [5]) [µM]	IC50 (PBP3; [4]) [µM]	PBP selectivity [1]	PBP selectivity (previous report) [2]
N[C@@H](C(=O)N[C@@H]1C(=O)N2C(C(=O)O)=C(Cl)CS[C@H]12)c1ccccc1 [Cefaclor, cefaclor]	10 (≈ 3680 ng/mL)	3.6 ± 1.33	8.59 ± 3.63	3.67 ± 2.52 µM	55.4 ± 26.3	0.034 ± 0.009 µM													
Cc1onc(-c2ccccc2Cl)c1C(=O)N[C@@H]1C(=O)N2[C@@H]1SC(C)(C)[C@@H]2C(=O)O [Cloxacillin, cloxacillin]		0.561 ± 0.219	0.977 ± 0.372	0.119 ± 0.062 µM	2.36 ± 1.77	0.102 ± 0.092 µM	4.47 ± 2.24												
CO[C@@]1(NC(=O)C2SC(=C(C(N)=O)C(=O)O)S2)C(=O)N2C(C(=O)O)=C(CSc3nnnn3C)CS[C@@H]21 (stereo partly shown) [Cefotetan, cefotetan]	1 (≈ 576 ng/mL)	14.6 ± 6.7	0.538 ± 0.201	14.4 ± 5.77 µM		0.069 ± 0.015 µM	54.3 ± 21.5												
CO/N=C(\C(=O)N[C@@H]1C(=O)N2C(C(=O)[O-])=C(C[N+]3(C)CCCC3)CS[C@H]12)c1csc(N)n1 [Cefepime, cefepime]	0.01 (≈ 4.81 ng/mL)																		
CC1(C)S[C@@H]2[C@H](NC(=O)[C@H](NC(=O)N3CCNC3=O)c3ccccc3)C(=O)N2[C@H]1C(=O)O [Azlocillin, azlocillin]		1.53 ± 0.532	0.963 ± 0.477	0.081 ± 0.018 µM	0.294 ± 0.131	0.065 ± 0.013 µM	1.4 ± 0.693												
Cc1onc(-c2c(F)cccc2Cl)c1C(=O)N[C@@H]1C(=O)N2[C@@H]1SC(C)(C)[C@@H]2C(=O)O [Flucloxacillin, flucloxacillin]	1 (≈ 454 ng/mL)	12.4 ± 4.2	17.7 ± 4.16	0.83 µM and 0.832 µM	18.5 ± 11.1	0.91 µM and 0.911 µM	35.3 ± 26	11 ± 2.47	50.5 ± 2.03	0.889 ± 0.389	2.01 ± 0.878	16 ± 2.01	51.5 ± 5.16	16.8 ± 9.3	33.5 ± 16	0.783 ± 0.581	1.95 ± 0.884		
C[C@@H](O)[C@H]1C(=O)N2C(C(=O)O)=C(S[C@@H]3CN[C@H](C(=O)Nc4cccc(C(=O)O)c4)C3)[C@H](C)[C@H]12 [Ertapenem, ertapenem]	0.01 (≈ 4.76 ng/mL)	0.118 ± 0.064	0.137 ± 0.375	0.752 ± 0.817 µM	13.8 ± 3.49	0.061 ± 0.043 µM	26.8 ± 4.08	0.038 ± 0.012	0.326 ± 0.082	0.341 ± 0.251	0.729 ± 0.122		6.69 ± 0.401	3.86 ± 7.4	> 1000	0.012 ± 0.006	0.031 ± 0.011	co-selectivity towards PBP3 and PBP1a and 3, la	
C[C@@H](O)[C@H]1C(=O)N2C(C(=O)[O-])=C(SC3Cn4cnc[n+]4C3)[C@H](C)[C@H]12 (stereo partly shown) [Biapenem, biapenem]	0.01 (≈ 3.5 ng/mL)	0.06 ± 0.021	6.82 ± 4.15		0.111 ± 0.106	0.006 ± 0.001 µM	0.146												
C=CC1=C(C(=O)O)N2C(=O)[C@@H](NC(=O)/C(=N\OCC(=O)O)c3csc(N)n3)[C@H]2SC1 [Cefixime, cefixime]	0.1 (≈ 45.3 ng/mL)	32.3 ± 34.4	8.96 ± 4.6	0.336 ± 0.224 µM	> 1000	0.026 ± 0.007 µM	4.85 ± 2.06												
C[C@@H](O)[C@H]1C(=O)N2C(C(=O)O)=C(S[C@@H]3CN[C@H](C(=O)N(C)C)C3)[C@H](C)[C@H]12 [Meropenem, meropenem]																			co-selectivity towards PBP3 along with PBP1a, but these molecules were additionally co-selective for PBP2x
CCOc1ccc2ccccc2c1C(=O)N[C@@H]1C(=O)N2[C@@H]1SC(C)(C)[C@@H]2C(=O)O [Nafcillin, nafcillin]	0.01 (≈ 4.14 ng/mL)	94.5 ± 88.6	32.4 ± 3.78	0.014 ± 0.006 µM	1.27 ± 0.306	0.125 ± 0.061 µM	4.54 ± 1.75												
C[C@@H](O)[C@H]1C(=O)N2C(C(=O)O)=C(S[C@@H]3CN[C@H](CNS(N)(=O)=O)C3)[C@H](C)[C@H]12 [Doripenem, doripenem]																			co-selectivity towards PBP3 along with PBP1a, but these molecules were additionally co-selective for PBP2x
Cc1onc(-c2c(Cl)cccc2Cl)c1C(=O)N[C@@H]1C(=O)N2[C@@H]1SC(C)(C)[C@@H]2C(=O)O [Dicloxacillin, dicloxacillin]	0.01 (≈ 4.7 ng/mL)	0.385 ± 0.261	1.14 ± 1.37	0.042 ± 0.055 µM	8.7	0.065 ± 0.051 µM	4.84 ± 4.74												
C[C@@H](O)[C@H]1C(=O)N2C(C(=O)O)=C(SCCN=CN)C[C@H]12 [Imipenem, imipenem]	0.1 (≈ 29.9 ng/mL)	0.027 ± 0.005	0.052 ± 0.022	0.048 ± 0.013 µM	0.052 ± 0.011	0.007 ± 0.001 µM	0.062 ± 0.021												
CO/N=C(\C(=O)N[C@@H]1C(=O)N2C(C(=O)[O-])=C(C[n+]3cccc4c3CCC4)CS[C@H]12)c1csc(N)n1 [Cefpirome, cefpirome]	0.01 (≈ 5.15 ng/mL)	0.051 ± 0.011	0.024 ± 0.008	0.002 ± 0.001 µM	5.53 ± 2.99		0.016 ± 0.004												
CC1(C)S[C@@H]2[C@H](NC(=O)[C@H](C(=O)O)c3ccsc3)C(=O)N2[C@H]1C(=O)O [Ticarcillin, ticarcillin]		0.827 ± 0.365	1.01 ± 0.331	0.251 ± 0.109 µM	3.34 ± 1.48	0.146 ± 0.087 µM	7.74 ± 2.6												
COCC1=C(C(=O)O)N2C(=O)[C@@H](NC(=O)/C(=N\OC)c3csc(N)n3)[C@H]2SC1 [Cefpodoxime, cefpodoxime]	0.01 (≈ 4.27 ng/mL)	1.92 ± 0.581	0.907 ± 0.406	0.041 ± 0.015 µM	0.522 ± 0.231	0.032 ± 0.005 µM	0.341 ± 0.125	2.78 ± 0.886	0.301 ± 0.071		0.035 ± 0.018	0.621 ± 0.161	0.179 ± 0.081	> 1000	> 1000	0.032 ± 0.004	0.018 ± 0.004		
CC1(C)S[C@@H]2[C@H](NC(=O)C(C(=O)O)c3ccccc3)C(=O)N2[C@H]1C(=O)O (stereo partly shown) [Carbenicillin, carbenicillin]	0.1 (≈ 37.8 ng/mL)	1.11 ± 0.367	0.859 ± 0.285	0.962 ± 0.506 µM	2.12 ± 1.15	0.018 ± 0.011 µM	5.64 ± 4.47												

Source: article PMC9115913 (Biological chemistry, 2022)
